From US10759735B2, “Bridged bicyclic compounds and their derivatives as neuroprotective agents and methods of use thereof” (Florida Atlantic University Board of Trustees, priority 2018, dated 2020)
Entries after “also recorded” stand apart in the source; their conditions may differ.

Key:
Assay type in all cases: in vivo, Drosophila melanogaster
[1] = tested on: Drosophila larval neuromuscular junction synaptic transmission; assay: neuromuscular junction (NMJ) postsynaptic transmission assay: time to synaptic failure under acute oxidative stress (2.25 mM H2O2); conditions: for EC50: Drosophila melanogaster, read-out: EC50 (half-maximal effective concentration) in protecting neurotransmission from H2O2 exposure, 2.25 mM H2O2 in HL3 saline, w1118 third instar larvae, from % maximal response of time to synaptic failure
Excerpt: Small molecule-mediated neuroprotection is an area of research that has important implications for several maladies such as migraine, Alzheimer's disease, and stroke. One promising method to measure the neuroprotective effects of various medicinal compounds against oxidative stress in D. melanogaster has been developed (Caplan et al. Journal of Neurophysiology, 2013, 109, 3, 649-658). In this phenotypic model, fly larvae have their synaptic transmission measured via electrical probes in the post-synaptic neuromuscular junction (NMJ). The time until synaptic failure is first measured to obtain a control. An oxidizing solution (2.25 mM of hydrogen peroxide) is then introduced to the tissue and the time to synaptic failure is again measured. Hydrogen peroxide greatly reduces the time to synaptic failure relative to the control by damaging neurons through oxidative stress. Once the time to synaptic failure has been established with hydrogen peroxide alone, then different compounds can be introduced at varying concentrations along with the hydrogen peroxide solution, and their effects on the time to synaptic failure are measured and compared to the two controls.
A series of compounds generated using the methods described herein were subjected to a neuromuscular junction (NMJ) postsynaptic transmission assay. Resveratrol was included as a neuroprotectant control. When a wash of hydrogen peroxide (2.25 mM) was introduced, the time to synaptic failure was shortened from approximately 150 min to approximately 40 min (FIG. 2). Introducing resveratrol at 25 nM restored the time to synaptic failure to approximately 150 min upon addition of hydrogen peroxide (2.25 mM).
To quantify tolerance of neurotransmission to acute oxidative stress, electrophysiological recordings from Drosophila larval preparations were conducted in a hemolymph-like 3 (HL3) saline containing 2.25 mM hydrogen peroxide (H2O2).
Wandering third instar larvae (≈110 hours old) from the fruit fly, Drosophila melanogaster, were utilized for all electrophysiological experiments described throughout this study. Larvae were reared at 25° C. on 12 h:12 h light-dark (LD) cycles in an incubator. Only w^1118 larvae were utilized in this study.
(§1) All electrophysiological experiments were performed as previously described with the exception of the resistance of the intracellular electrodes (60-90 MΩ) (Caplan et al. J. Neurophys. 109, 649-658). Excitatory junction potentials (EJPs) were elicited via repetitive stimulation (0.3 ms pulses delivered suprathreshold at a frequency of 1 Hz) and measured until synaptic failure occurred, which was characterized by an EJP amplitude of <1 mV being recorded. Electrophysiological recordings from larval preparations were conducted in hemolymph-like 3 (HL3) saline containing 2.25 mM H2O2. […] HL3 saline containing 1.5 mM Ca^2+ and 20 mM Mg^2+ was used as the recording saline throughout this study. HL3 has been utilized by other research groups to record EJPs.^20 Intracellular recordings of resting membrane potential were taken from Drosophila larval muscle 6.
All test compounds and H2O2 were applied to the Drosophila larval NMJ preparation as previously described by Caplan et al. (supra). However, the compounds utilized in the Caplan et al. work were dissolved in dimethyl sulfoxide (DMSO), whereas the compounds utilized in the present study are water-soluble at the concentrations used and thus were dissolved in ddH2O.
The statistics utilized in the vertical bar charts and line graphs were performed as previously described with the exception of the error bars being presented as mean±SEM instead of mean±SD. The EC50, or half maximal effective concentration, of each test compound was determined by plotting the logio(compound dose) against the corresponding average percentage of the maximal effectiveness, as previously described (Caplan et al. J. Neurophys. 109, 649-658).

[2] = tested on: excitatory junction potential (EJP) at the Drosophila NMJ; assay: control recordings of excitatory junction potential (EJP) shape and amplitude; conditions: 1 nM, in the presence and absence of 2.25 mM H2O2, ten minutes after bath switch
Excerpt: In all panels, the curved black line represents the average EJP in hemolymph-like saline (HL3) one minute before the recording bath was replaced with HL3 containing the drug alone or the drug and H2O2. The curved gray line represents the average EJP from the same larvae ten minutes after the bath was switched from HL3 saline to HL3 containing either the drug alone or the drug and H2O2.

[3] = tested on: Drosophila larval muscle 6 resting membrane potential; assay: intracellular recording of resting membrane potential (RMP) during acute oxidative stress; conditions: 1 nM with 2.25 mM H2O2 versus H2O2 alone
Protocol: FIGS. 8A and 8B are a pair of graphs showing that during acute oxidative stress, Drosophila larval muscle resting membrane potential (RMP) and EJP amplitude decline. […] 8B) EJP amplitude was recorded in the same larval preparations (n=5 per group). […] Data is presented as mean±SEM.
To ensure that the results obtained using compound 1 and resveratrol were not due to changes in the EJP, additional control experiments were performed, as previously described (Caplan et al. J. Neurophys. 109, 649-658). […] It was also observed that resting membrane potential (RMP) and EJP amplitude decline in larvae treated with H2O2 alone and H2O2 with 1 nM compound 1 (see FIGS. 8A. 8B).
as §1, with “HL3 has been utilized by other research groups to record EJPs.^20 Intracellular recordings of resting membrane potential were taken from Drosophila larval muscle 6.” left out

`COc1cc(OC)cc(C2CC3C(OC(C)=O)C(C)=C(C)C2(C(=O)O)C3OC(C)=O)c1` (racemic) [compound 1, 7-(3,5-dimethoxyphenyl)-4,8-diacetoxy-2,3-dimethylbicyclo[3.2.1]oct-2-ene-1-carboxylic acid] was tested, and the “time until synaptic failure restored” value ([1]; 0.5 nM, in the presence of hydrogen peroxide) was 80%, the “normal synaptic function maintained” value ([1]; 25 nM, H2O2 2.25 mM, wild-type fruit fly larvae) was 100% and the “time to synaptic failure compared to control and resveratrol-treated preparations” value ([1]; 0.5-5 nM dosage range, 2.25 mM H2O2, P<0.001) was “significantly increased time to synaptic failure”. For the same molecule, the EC50 [1] was ~0.21 nM, the “neuroprotection in screening of initial compounds” value ([1]; H2O2 2.25 mM, wild-type fruit fly larvae) was “potent neuroprotectants” and the “neuroprotective effect compared to resveratrol across dosages” value ([1]; almost all dosages tested (0.5 nM to 25 nM)) was “stronger neuroprotective effects”. The “protection of synaptic transmission from acute oxidative stress” value ([1]; at a subnanomolar level) was “protect synaptic transmission from acute oxidative stress”, the “dose dependence of neuroprotective effect” value ([1]; dose-response, 2.25 mM H2O2) was “dose-dependent manner” and the “neuroprotective effect at lowest dose” value ([1]; doses as low as 500 pM, H2O2 exposure) was “strong neuroprotective effects”. For the same molecule, the ion channel stabilization ([1]; general statement ('appear to have'), no separate test described) was “ion channel stabilization effects”, the toxicity ([1]; general statement, no separate test described) was “non-toxic” and the “time until synaptic failure compared to control larvae treated with 2.25 mM H2O2 only” value ([1]; low doses (0.5 nM and 1 nM)) was “significantly increased the amount of time until synaptic failure”. For the same molecule, the “neuroprotective effect compared to resveratrol” value ([1]; similar dosage of resveratrol, P<0.001) was “stronger neuroprotective effects”, the “acute effect on the shape or amplitude of the EJP” value [2] was “do not have a significant acute effect; also recorded: do not acutely affect” and the “decline of resting membrane potential (RMP)” value [3] was “significantly slowed the decline of RMP”.
For `COc1cc(OC)cc(C2CC3C(O)C(C)=C(C)C2(C(=O)O)C3O)c1` (racemic) [compound 2, 7-(3,5-dimethoxyphenyl)-4,8-dihydroxy-2,3-dimethylbicyclo[3.2.1]oct-2-ene-1-carboxylic acid], the EC50 [1] was 2.99 nM, the “time to synaptic failure during H2O2 exposure compared to control preparations” value ([1]; higher doses, P<0.001) was “significantly increased time to synaptic failure” and the “time to failure during H2O2 exposure” value ([1]; low doses (0.1 nM and 0.5 nM)) was “did not prolong time to failure”. The “time to synaptic failure compared to control” value ([1]; only at the 5.0 nM dosage, 2.25 mM H2O2, P<0.001) was “similarly increased time to synaptic failure” and the “EC50 relative to compound 1” value ([1]; ratio of EC50 values) was “over ten-fold higher”.
With `Oc1ccc(C=Cc2cc(O)cc(O)c2)cc1` [resveratrol, reference compound] the “time to synaptic failure” value ([1]; 25 nM with hydrogen peroxide 2.25 mM (H2O2 alone approx. 40 min, no H2O2 approx. 150 min)) was “approximately 150 min”, the “neuroprotectant activity from the dose curve” value ([1]; at the chosen dosages, unusual dose curve, EC50 not reliably determinable) was “does not act as a neuroprotectant” and the “acute effect on the shape or amplitude of the EJP” value [2] was “do not have a significant acute effect; also recorded: do not acutely affect”.
